Key:
[1] = tested on: NefGFP release from HEK293 cells; test: Nef-GFP co-transfection secretion assay, GFP fluorescence of supernatant; type: cell-based; conditions: HEK293, 0.5 μg Nef-GFP + 0.5 μg peptide, Chariot, 48 h; relative to NefGFP+sM1 (100%)
Method: Therefore, a set of co-transfection experiments were performed. HEK293 cells were co-transfected with 0.5 μg of pQBI-HIV Nef-GFP (expresses wild type Nef protein) and either 0.5 μg of HIV-1 Nef SMRwt or SMRmut peptide or sM1 peptide (a totally random control peptide, ALAETCQNAWA (SEQ ID NO: 7)) with Chariot. Briefly, the wild-type Nef-GFP clone and the SMR peptides were complexed with Chariot reagent for 30 minutes at RT. The DNA/peptide/Chariot complex was added to HEK293 cells in serum-free media, and the cells were plated. Following incubation for 2 hours at 37° C., media with serum was added to the dish, and the cells were incubated at 37° C. for 48 h. The media was then collected and assayed for secretion using a spectrofluorimeter. The conditioned supernatants from these cultures were assayed for GFP fluorescence by plate reader.

R7; Magi/CXCR4 cells = test: Magi assay of viral infectivity, supernatants of Jurkat cells; type: cell-based, HIV; conditions: for blue staining (productively infected) Magi/CXCR4 cells: 48 hour conditioned supernatant of Jurkat cells transfected with R7 and peptide, X-Gal
Method: Magi/CXCR4 cells were exposed to 48 hour conditioned supernatants from Jurkat cells, HEK293 cells, THP-1 monocytes, or U937 monocytes transfected with either R7 viral DNA/SMRwt peptide or R7 viral DNA/SMRmt peptide. These cells were then fixed and stained with X-Gal. […] Cells productively infected with R7 are easily visualized under light microscopy by their blue nuclear staining. Magnification ×20. […] This is indicative of virus in the conditioned supernatant from the R7/negative control peptide treated cells and no virus in conditioned supernatant from the R7/antagonist treated cells.
These Magi cultures were quantitated for blue staining cells. The data was plotted as a function of time post-transfection. […] This is possibly due to antagonism of trafficking of viral component(s) to the cytoplasmic membrane. Ultimately this would shutdown the HIV infection and block progression to AIDS.

[2] = tested on: HIV-1 Gag-GFP secretion, HEK293; test: HIV-1 Gag-GFP induced secretion, fluorescent plate reader assay; type: cell-based; conditions: for SMRmt/SMRwt ratio of secretion: HEK293, HIV-1 Gag-GFP; for Increase in Secretion (relative to untransfected cells), exp condition/UT: HEK293, HIV-1 Gag-GFP (sM1 column head prints GFP/sM1), 0.5 μg peptide, 48 hours
Method: (§1) Cells were co-transfected with 0.5 μg of pQBI-HIV Gag-GFP (expresses wild type Gag protein) and either 0.5 μg of HIV-1 Nef SMRwt, SMRmut peptide, sM1 peptide or untransfected controls with Chariot for 48 hours. The conditioned supernatants from these cultures were assayed for GFP fluorescence by plate reader.

[3] = tested on: HIV-1 Gag-GFP secretion, Jurkat; test: as above; type: cell-based; conditions: for SMRmt/SMRwt ratio of secretion: HIV-1 Gag-GFP; for Increase in Secretion (relative to untransfected cells), exp condition/UT: HIV-1 Gag-GFP (sM1 column head prints GFP/sM1), 0.5 μg peptide, 48 hours
Method: as §1

[4] = tested on: HIV-1 Gag-GFP secretion, THP-1; test: as above; type: cell-based; conditions: for SMRmt/SMRwt ratio of secretion: THP-1, HIV-1 Gag-GFP; for Increase in Secretion (relative to untransfected cells), exp condition/UT: THP-1, HIV-1 Gag-GFP (sM1 column head prints GFP/sM1), 0.5 μg peptide, 48 hours
Method: as §1

[5] = tested on: HIV-1 Gag-GFP secretion, U937; test: as above; type: cell-based; conditions: for SMRmt/SMRwt ratio of secretion: U937, HIV-1 Gag-GFP; for Increase in Secretion (relative to untransfected cells), exp condition/UT: U937, HIV-1 Gag-GFP (sM1 column head prints GFP/sM1), 0.5 μg peptide, 48 hours
Method: as §1

Substance | release of NefGFP into the extracellular supernatant (GFP fluorescence) [1] | blue staining (productively infected) Magi/CXCR4 cells (R7; Magi/CXCR4 cells) | SMRmt/SMRwt ratio of secretion [2] [y] | Increase in Secretion (relative to untransfected cells), exp condition/UT [2] [x] | SMRmt/SMRwt ratio of secretion [3] [y] | Increase in Secretion (relative to untransfected cells), exp condition/UT [3] [x] | SMRmt/SMRwt ratio of secretion [4] [y] | Increase in Secretion (relative to untransfected cells), exp condition/UT [4] [x] | SMRmt/SMRwt ratio of secretion [5] [y] | Increase in Secretion (relative to untransfected cells), exp condition/UT [5] [x] | numbers of infected Magi cells as a function of time post-transfection (R7; Magi/CXCR4 cells; supernatant from transfected Jurkat cells) | Gag virus-like particle release (in words, Table II) ([3]; Gag-GFP alone, HEK293, THP-1, U937)
H2N-AGFPVAAAGFPVDYKDDDDK-OH (H-AGFPVAAAGFPVDYKDDDDK-OH) [SMRmt] | no effect | many blue staining cells | 1.08 | 25.96 | 1.22 | 58.22 | 1.08 | 45.06 | 1 | 43.82 |  | 
H-VGFPVAAVGFPVDYKDDDDK-OH [SMRwt] | antagonizes the release of NefGFP into the extracellular supernatant | drastically reduced numbers of blue staining cells | 1 | 24.22 | 1 | 47.46 | 1 | 41.3 | 1 | 43.95 | significantly reduced | no effect on Gag virus-like particle release
